Results published in patent US20230000806A1, “COMPOSITIONS AND METHODS FOR GLUTATHIONE ENHANCEMENT FOR USE IN BRAIN HEALTH” (SOCIETE DES PRODUITS NESTLE S.A., priority 2019, published 2023).

Legend:
[1] = tested on: rats; test: GSH levels in the nucleus accumbens of treated rats; assay type: in vivo, rat
[2] = tested on: rats; test: Operant conditioning, progressive ratio reinforcement schedule (motivated behaviour); assay type: in vivo, rat; details: vs vehicle
Description: Adult male outbred rats were trained for nose poke for saccharine food pellets for one week on an FR1 training schedule as described in the methods below. Rats were then treated with either normal drinking water (vehicle) or N-acetyl cysteine (NAC) in the drinking water (FIG. 22A) at a dose that was previously shown to enhance GSH levels (FIG. 22B). Following 2 weeks of treatment, rats were given an additional 2 training sessions, followed 24 h later by a progressive ratio session designed to test their motivated behaviour. During this progressive ratio session, rats have to increasingly work harder to earn the saccharine pellet, as described in the methods below. […] The breakpoint is defined as the last step in the session where the animals received a reward and is a direct correlate of their willingness to exert an effort. […] Animals: Adult male Wistar rats (Charles Rivers, Saint-German-Nuelle, France) weighing 250-275 gr at the beginning of the experiment were used for all experiments. Rats were individually housed in cages in housing colonies on a 12:12 h reversed light:dark cycle with lights on at 20:00, and lights-off at 8:00. Food and water were available ad libitum. Following a week of acclimatization to the animal facilities, rats were handled for 2 min per day for three days prior to the start of the experiments, in order to habituate to the experimenters. Operant conditioning: Ten days after introduction to the reversed day-night cycle, rats started training in a fixed ratio 1 reinforcement schedule (FR1). Operant chambers (Coulbourn Instruments, Holliston, Mass., US), placed in sound attenuating cubicles, were equipped with a grid, underneath which a tray with standard bedding material was placed for collection of feces and urine after each training session. Each chamber had one food tray and two ports placed on either side of the tray. A cue light was placed in each port and the food tray, whereas a house light was placed above the food tray. The right-hand side port of each chamber was designated as “active”, meaning that spontaneous nosepoking would result in the drop of one 45 mg food pellet (Bio-Serv, Flemington, N.J., USA) to the food tray. Upon nosepoking in the active port, the cue and house lights were turned off, while the tray light turned on and the pellet dropped to the food tray. […] Subsequently, the chamber returned to its initial condition. Each training session lasted maximally two hours or until a rat acquired 100 pellets. Each rat received six training sessions (one training on each day for five consecutive days, followed by two days without training and one training session on day 8). Only rats that finished at least two training sessions acquiring 100 pellets before the two-hour mark were used for progressive ratio experiments. Subsequently, rats were treated with N-acetyl cysteine in the drinking water (500 mg/L) or continued having access to normal water (control). After two weeks of treatment, rats were exposed to another two days of FR1 training to ensure their training performance was similar to pre-treatment levels. To test motivated behaviour, rats were exposed to a progressive ratio reinforcement schedule (progressive ratio test). Progressive ratio sessions were identical to training sessions except that the operant requirement in each trial (T) was the integer (rounded down) of the function 1.4^(T-1) starting at one nosepoke for the first three trials and increasing in subsequent trials for rats (Wanat et al. Nat Neurosci. 2013; 16(4):383-5). Progressive ratio sessions lasted two hours. Correct nosepokes (i.e. nosepokes in the active port and outside the timeout period, thus resulting in food delivery) were calculated to evaluate behavioural performance, as well as the number of acquired rewards and the last completed ratio (breakpoint). Investigation of the Nucleus accumbens was undertaken in cannulated rats which were then moved to a reverse light-dark cycle to recover for 10 days. […]

[3] = tested on: rat primary astrocytes; test: Intracellular GSH by GSH-Glo Assay in rat primary astrocyte culture; assay type: cell-based; details: standard culture conditions (no cysteine depletion); 48 hrs after treatment; normalized to total proteins
Description: Intracellular GSH was measured in rat primary astrocytes in culture by using a GSH-Glo™ Assay, which is a luminescent-based assay for the detection and quantification of reduced and/or total glutathione levels in cells. The assay converted luciferin derivatives into luciferin in the presence of GSH. The reaction was catalyzed by a glutathione S-transferase (GST) enzyme supplied in the kit. The luciferin formed was detected in a coupled reaction using Ultra-Glo™ Recombinant Luciferase that generated a glow type luminescence that was proportional to the amount of glutathione present in cells. A standard curve was used for each biological replicate and at least 4 technical replicates were done for each condition and for each biological replicate. 10% of lysate of each technical and biological replicate was used to measure protein amount by BCA and used to normalize the GSH intracellular content to total proteins. Buthionine sulfoximine (BSO) a specific inhibitor of γ-glutamylcysteine ligase (GCL) was added at 15 mM at the time of the start of the treatment to confirm the specificity of the readout. Measurements were performed 48 hrs after treatment. Results were compared to the control condition for each biological replicate and for each condition.

[4] = tested on: rat primary astrocytes; test: Cytoplasmic reactive oxygen species (ROS) measurement with CellROX Deep Red; assay type: cell-based; details: 48 hrs after treatment; oxidative stress triggered by 250 μM tBHP for 1 hour; vs control
Description: Cytoplasmic ROS was measured in rat primary astrocytes in culture by CellROX® Deep Red reagent, a novel cell-permeant dye with absorption/emission maxima of ˜644/665 nm. CellROX® Deep Red reagent while in a reduced state is non-fluorescent and becomes fluorescent upon oxidation by reactive oxygen species with emission maxima ˜665. CellMask™-green stains plasma membrane and DAPI stains nuclei. We used the green channel and the dapi to segment the image in cytoplasmic and nuclear areas and measure the CellROX deep red signal in these areas. As CellROX® Deep Red is a better read out for cytoplasmic ROS, we measure the average intensity in the cytoplasm and normalized to the average cytoplasmic area. Cell count using DAPI was performed to establish toxicity or cell detachment for each condition. Images were taken to cover all the area of the well where cells were seeded and at least 4 technical replicates were done for each condition and for each biological replicate. Measurements were performed at 48 hrs after treatment at baseline and after oxidative stress where oxidative stress was triggered by 250 μM tBHP for 1 hour. Results were compared to the control condition at baseline for each biological replicate and for each condition.

[5] = tested on: Nrf2; test: Measurement of nuclear Nrf2 in astrocytes (immunostaining); assay type: cell-based, rat; details: 48 hrs after treatment; for increase Nrf2 levels in the cell nucleus: significant; for Nrf2 activation: vs control (water or 0.1% DSMO)
Description: Nuclear Nrf2 was measured in rat primary astrocytes in culture. The cells were stained with Nrf2 (Abcam ab89443 1:500), Tubulin (Abcam ab 89984 1:1000) antibodies and DAPI as nuclear counterstaining. We used the tubulin channel and the DAPI to segment the image in cytoplasmic and nuclear areas and measure the Nrf2 signal in these areas. We measure the average intensity in the nucleus and normalized to the average nuclear area. Cell count using DAPI was performed to establish toxicity or cell detachment for each condition. Images were taken to cover all the area of the well where cells were seeded and at least 6 technical replicates were done for each condition and for each biological replicate. Measurements were performed 48 hrs after treatment with each of the compounds: N-Acetylcysteine dissolved in water, while Puerarine, Sulfurophane, Taurine at different doses were dissolve in a 0.1% DSMO final solution. They were compared to the control in each condition which was water or 0.1% DSMO alone. Results were compared to the control condition for each biological replicate and for each condition. Statistics were done using Kruskal-Wallis Multiple Comparison test.

[6] = tested on: rat primary astrocytes; test: Intracellular GSH in astrocytes in medium reduced in cysteine and methionine; assay type: cell-based; details: medium depleted of methionine and cystine, supplemented with 15% FBS
Description: Intracellular GSH was measured in rat primary astrocytes in culture by using a GSH-Glo™ Assay, which is a luminescent-based assay for the detection and quantification of reduced and/or total glutathione levels in cells. The assay converted luciferin derivatives into luciferin in the presence of GSH. The reaction was catalyzed by a glutathione S-transferase (GST) enzyme supplied in the kit. The luciferin formed was detected in a coupled reaction using Ultra-Glo™ Recombinant Luciferase that generated a glow type luminescence that was proportional to the amount of glutathione present in cells. A standard curve was used for each biological replicate and at least 4 technical replicates were done for each condition and for each biological replicate. 10% of lysate of each technical and biological replicate was used to measure protein amount by BCA and used to normalize the GSH intracellular content to total proteins. […] Measurements were performed 48 hrs after treatment. […] To measure GSH increase after N-acetyl cysteine (Nac) and L-cysteine supplementation, rat primary astrocytes were cultured in medium depleted of methionine (a precursor of cysteine) and cystine but still supplemented with 15% FBS to not have a full depletion but rather a reduction of these amino acids. Experiments were performed only with the same batch of FBS to avoid any difference in amino-acid content amongst batches. […]

[7] = single infusion in the Nucleus Accumbens, 1 μl of 7 μg/μl, 24 hours before
[8] = NAC in the drinking water (500 mg/L), 2 weeks

CCCCS(=N)(=O)CCC(N)C(=O)O (stereo not drawn) [BSO, Buthionine sulfoximine]
reduction of GSH levels in the Nucleus Accumbens ([1]; single infusion in the Nucleus Accumbens, 1 μl of 7 μg/μl, 24 hours before the test, vs vehicle): 29%
change in breakpoint (PR-schedule) [2, 7]: −68%
change in correct nosepokes (PR-schedule) [2, 7]: −60%
change in rewards (PR-schedule) [2, 7]: −22%

C[N+](C)(C)C(Cc1c[nH]c(S)n1)C(=O)O.[OH-] (stereo not drawn) [Ergothioneine, 1-carboxy-2-[2-mercaptoimidazole-4-(or 5)-yl]ethyl]-trimethyl-ammonium hydroxide]
intracellular glutathione [3]: increases intracellular glutathione
reactive oxygen species after oxidative stress [4]: decreases reactive oxygen species
increase Nrf2 levels in the cell nucleus ([5]; 0.5 mM): ≤ 18%

N[C@@H](CS)C(=O)O [L-cysteine]
GSH intracellular level [6]: significantly increase the GSH intracellular level

CCNC(=O)CC[C@H](N)C(=O)O [L-theanine]
intracellular glutathione [3]: increases intracellular glutathione
reactive oxygen species after oxidative stress [4]: decreases reactive oxygen species

CC(=O)N[C@@H](CS)C(=O)O [N-Acetylcysteine, reference compound]
GSH in the nucleus accumbens ([1]; NAC in the drinking water (500 mg/L), 2 weeks, vs vehicle treated rats): enhanced GSH in the nucleus accumbens
intracellular glutathione [3]: does not increase intracellular glutathione
breakpoint level in progressive ratio session [2, 8]: significantly higher breakpoint level
nose pokes in progressive ratio session [2, 8]: significantly more nose pokes
number of rewards in progressive ratio session [2, 8]: greater number of rewards
reactive oxygen species after oxidative stress [4]: decreases reactive oxygen species
Nrf2 activation [5]: does not activate Nrf2
GSH intracellular level [6]: significantly increase the GSH intracellular level

O=c1c(-c2ccc(O)cc2)coc2c([C@@H]3O[C@H](CO)[C@@H](O)[C@H](O)[C@H]3O)c(O)ccc12 [Puerarine]
intracellular glutathione [3]: increases intracellular glutathione
reactive oxygen species after oxidative stress [4]: decreases reactive oxygen species after oxidative stress in a dose dependent manner
increase Nrf2 levels in the cell nucleus ([5]; highest dose of 10 μm): ≤ 20%

C[S+]([O-])CCCCN=C=S (stereo not drawn) [Sulfurophane]
intracellular glutathione [3]: increases intracellular glutathione
reactive oxygen species after oxidative stress [4]: decreases reactive oxygen species
increase Nrf2 levels in the cell nucleus ([5]; 2 μM): ≤ 20%

NCCS(=O)(=O)O [Taurine, 2-aminoethanesulfonic acid]
intracellular glutathione [3]: increases intracellular glutathione
reactive oxygen species after oxidative stress [4]: decreases reactive oxygen species
Nrf2 activation [5]: does not activate Nrf2
